# In ChEMBL document CHEMBL3885861, “Open TG-GATES”:
# Species on record: Rattus norvegicus
# Test: Open TG-GATES - Regimen: Single
# Type: toxicity, organism-based, Sprague-Dawley
# Set-up: regimen Single, gender Male, age 6 weeks
# Conditions: in vivo, po, 100 mg/kg, route gavage, dose level Low; for APTT / Bas / Eos / Fbg / Hb / Ht / Lym / MCH / MCHC / MCV / Mono / Neu / PT / Plat / RBC / Ret / WBC: tissue Blood; for KIDNEY_L / KIDNEY_R / KIDNEY_TOTAL: tissue Kidney; for LIVER: tissue Liver; for A/G / ALP / ALT / AST / BUN / CRE / Ca / Cl / DBIL / GLC / IP / K / LDH / Na / PL / RALB / TBIL / TC / TG / TP / gamma-GTP: tissue Plasma
smiles,measurement,setting,value
CNC(=C[N+](=O)[O-])NCCSCc1ccc(CN(C)C)o1 [RANITIDINE],TERMINAL_BW,9 h,213.4 g
same,APTT,9 h,19.1 s
same,Bas,9 h,0%
same,Eos,9 h,1%
same,Fbg,9 h,217.2 mg/dL
same,Hb,9 h,13.2 g/dL
same,Ht,9 h,37.7%
same,Lym,9 h,72%
same,MCH,9 h,22.1 pg
same,MCHC,9 h,34.9%
same,MCV,9 h,63.3 fL
same,Mono,9 h,2.6%
same,Neu,9 h,21.8%
same,PT,9 h,12.6 s
same,Plat,9 h,116.5 x10_4/uL
same,RBC,9 h,596.2 x10_4/ul
same,Ret,9 h,7.2%
same,WBC,9 h,81.2 x10_2/uL
same,KIDNEY_L,9 h,1 g
same,KIDNEY_R,9 h,1 g
same,KIDNEY_TOTAL,9 h,1.9 g
same,LIVER,9 h,8.4 g
same,A/G,9 h,1.6
same,ALP,9 h,835.8 IU/L
same,ALT,9 h,32.2 IU/L
same,AST,9 h,68 IU/L
same,BUN,9 h,10 mg/dL
same,CRE,9 h,0.3 mg/dL
same,Ca,9 h,10.3 mg/dL
same,Cl,9 h,103.4 meq/L
same,DBIL,9 h,0.062 mg/dL
same,GLC,9 h,194.2 mg/dL
same,IP,9 h,8.4 mg/dL
same,K,9 h,3.6 meq/L
same,LDH,9 h,144.4 IU/L
same,Na,9 h,140.4 meq/L
same,PL,9 h,132.6 mg/dL
same,RALB,9 h,3.3 g/dL
same,TBIL,9 h,0.1 mg/dL
same,TC,9 h,78.6 mg/dL
same,TG,9 h,22.2 mg/dL
same,TP,9 h,5.3 g/dL
same,gamma-GTP,9 h,1.4 IU/L
same,TERMINAL_BW,24 h,226.3 g
same,APTT,24 h,19.4 s
same,Bas,24 h,0%
same,Eos,24 h,1%
same,Fbg,24 h,227 mg/dL
same,Hb,24 h,13.9 g/dL
same,Ht,24 h,39.7%
same,Lym,24 h,79.2%
same,MCH,24 h,22.7 pg
same,MCHC,24 h,35.2%
same,MCV,24 h,64.4 fL
same,Mono,24 h,2.4%
same,Neu,24 h,15.2%
same,PT,24 h,12 s
same,Plat,24 h,116.2 x10_4/uL
same,RBC,24 h,617.2 x10_4/ul
same,Ret,24 h,6.5%
same,WBC,24 h,100.7 x10_2/uL
same,KIDNEY_L,24 h,1 g
same,KIDNEY_R,24 h,1 g
same,KIDNEY_TOTAL,24 h,2 g
same,LIVER,24 h,10.7 g
same,A/G,24 h,1.5
same,ALP,24 h,931.8 IU/L
same,ALT,24 h,33.8 IU/L
same,AST,24 h,65.6 IU/L
same,BUN,24 h,14.4 mg/dL
same,CRE,24 h,0.4 mg/dL
same,Ca,24 h,10.8 mg/dL
same,Cl,24 h,102.2 meq/L
same,DBIL,24 h,0.086 mg/dL
same,GLC,24 h,196.6 mg/dL
same,IP,24 h,7.6 mg/dL
same,K,24 h,4 meq/L
same,LDH,24 h,147.8 IU/L
same,Na,24 h,140.2 meq/L
same,PL,24 h,142.8 mg/dL
same,RALB,24 h,3.3 g/dL
same,TBIL,24 h,0.1 mg/dL
same,TC,24 h,70.8 mg/dL
same,TG,24 h,90 mg/dL
same,TP,24 h,5.5 g/dL
same,gamma-GTP,24 h,1 IU/L
